# Laboratory results from PMC8592027, “Structure-Guided Design of D-Galactal Derivatives with High Affinity and Selectivity for the Galectin-8 N-Terminal Domain” (ACS Medicinal Chemistry Letters, 2021).
# Legend:
# [1] = target: T1, galectin-1 (Homo sapiens, UniProt P09382); assay: Competitive fluorescence polarization assay, galectin-1; assay type: binding; conditions: mean ± SEM of n = 4–8
# T1 construct: made in house
# Procedure: (§1) 1. Competitive fluorescence polarization experiments:
# (§2) Human galectins -1, -3, -4N, -4C, -7, -8N, -9N, and -9C were expressed and purified as previously described 30,41. Fluorescence polarisation experiments were performed using the PHERAstar FS plat e reader (software version 2.10 R3), and the fluorescence anisotropy of fluorescein tagged probes was measured by excitation at 485 nm and emission at 520 nm. The specific conditions for galectins -1, -3, -4N, -4C, -7, -8N, -9N, and -9C were kept as report ed30,41,42. The synthesised compounds were dissolved in pure DMSO at 20 mM concentration and diluted in PBS to 3-6 different concentrations, and each concentration was tested in duplicate. The highest inhibitor concentrations tested were 1.5 mM. The
# [2] = target: T2, galectin-3 (Homo sapiens, UniProt P17931); assay: Competitive fluorescence polarization assay, galectin-3; assay type: binding; conditions: mean ± SEM of n = 4–8
# T2 construct: made in house
# Procedure: as §1, §2
# [3] = target: T3, galectin-4N (N-terminal domain) (Homo sapiens, UniProt P56470); assay: Competitive fluorescence polarization assay, galectin-4N; assay type: binding; conditions: mean ± SEM of n = 4–8
# T3 construct: galectins (N = N-terminal domain, C = C-terminal domain); made in house
# T3 sequence (P56470 19-150 limits assumed): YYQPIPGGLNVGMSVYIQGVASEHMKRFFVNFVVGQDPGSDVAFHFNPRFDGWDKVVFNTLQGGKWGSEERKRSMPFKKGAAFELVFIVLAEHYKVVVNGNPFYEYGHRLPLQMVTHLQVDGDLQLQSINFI
# Procedure: as §1, §2
# [4] = target: T4, galectin-4C (C-terminal domain) (Homo sapiens, UniProt P56470); assay: Competitive fluorescence polarization assay, galectin-4C; assay type: binding; conditions: mean ± SEM of n = 4–8
# T4 construct: galectins (N = N-terminal domain, C = C-terminal domain); made in house
# T4 sequence (P56470 194-323 limits assumed): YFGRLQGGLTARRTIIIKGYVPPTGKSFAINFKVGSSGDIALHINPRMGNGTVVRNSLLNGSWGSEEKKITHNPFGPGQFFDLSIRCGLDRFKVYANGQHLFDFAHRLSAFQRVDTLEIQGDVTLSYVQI
# Procedure: as §1, §2
# [5] = target: T5, galectin-8N (galectin-8 N-terminal domain) (Homo sapiens, UniProt O00214); assay: Competitive fluorescence polarization assay, galectin-8N; assay type: binding; conditions: mean ± SEM of n = 4–8
# T5 construct: selective ligand for the galectin-8 N-terminal domain (galectin-8N); made in house
# T5 sequence (O00214 19-152 limits assumed): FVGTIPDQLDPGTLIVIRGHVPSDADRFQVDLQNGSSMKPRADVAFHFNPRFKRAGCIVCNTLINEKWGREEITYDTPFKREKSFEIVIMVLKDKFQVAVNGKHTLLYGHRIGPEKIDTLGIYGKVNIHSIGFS
# Procedure: All synthesized D-galactal derivatives had higher binding affinities for galectin-8N than D-galactal 3.
# as §1, §2
# [6] = target: T6, galectin-8C (C-terminal domain) (Homo sapiens, UniProt O00214); assay: Competitive fluorescence polarization assay, galectin-8C; assay type: binding; conditions: mean ± SEM of n = 4–8
# T6 construct: galectins (N = N-terminal domain, C = C-terminal domain)
# T6 sequence (O00214 187-317 limits assumed): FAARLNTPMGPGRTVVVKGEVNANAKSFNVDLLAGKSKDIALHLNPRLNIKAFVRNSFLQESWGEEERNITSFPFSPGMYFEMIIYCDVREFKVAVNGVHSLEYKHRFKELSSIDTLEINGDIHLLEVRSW
# [7] = target: T7, galectin-9N (N-terminal domain) (Homo sapiens, UniProt O00182); assay: Competitive fluorescence polarization assay, galectin-9N; assay type: binding; conditions: mean ± SEM of n = 4–8
# T7 construct: galectins (N = N-terminal domain, C = C-terminal domain); made in house
# Procedure: as §1, §2
# [8] = target: T8, galectin-9C (C-terminal domain) (Homo sapiens, UniProt O00182); assay: Competitive fluorescence polarization assay, galectin-9C; assay type: binding; conditions: mean ± SEM of n = 4–8
# T8 construct: galectins (N = N-terminal domain, C = C-terminal domain); made in house
# Procedure: as §1, §2
# [9] = target: T9, galectin-2 (Homo sapiens, UniProt P05162); assay: Competitive fluorescence polarization assay, galectin-2; assay type: binding; conditions: mean ± SEM of n = 4–8
# T9 sequence (P05162 1-132): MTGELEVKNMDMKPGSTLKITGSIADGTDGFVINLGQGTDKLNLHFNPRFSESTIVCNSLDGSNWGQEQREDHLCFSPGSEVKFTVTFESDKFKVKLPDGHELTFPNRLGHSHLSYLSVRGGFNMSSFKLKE
# [10] = target: T10, galectin-7 (Homo sapiens, UniProt P47929); assay: Competitive fluorescence polarization assay, galectin-7; assay type: binding; conditions: mean ± SEM of n = 4–8
# T10 construct: made in house
# Procedure: as §1, §2
# [11] = system: K562 cancer cell line; assay: MTS metabolic activity (cytotoxicity) assay, K562; assay type: cell-based; conditions: concentrations 1 to 100 μM, 24 hours
# Procedure: (§3) We have investigated the cytotoxicity of the compounds 1, 6a, and 6c via a (3-(4,5-dimethylthiazol-2-yl)-5-(3-carboxymethoxyphenyl)-2-(4-sulfophenyl)-2H-tetrazolium) (MTS) assay in K562 and MDA-MB-231 cancer cell lines to establish the direct antitumor activity of compounds, as well as human peripheral blood mononuclear cells (PBMCs), to evaluate their safety.
# (§4) Metabolic activity assay:
# (§5) The metabolic activities of the cell lines were determined using the CellTiter 96 Aqueous One Solution cell proliferation assay (MTS Reagents, Promega, Madison, WI, USA), according to the manufacturer instructions. Briefly, the cells were treated with the selected compounds in 0.1% dimethyl sulfoxide (DMSO; vehicle), 0.1% DMSO (control vehicle), or medium (control) and seeded at a cell density of 5,500 cells/well (MDA-MB-231 cells) or 4 x 10^4 cells/well (K562 cells), 7000 cells/well (HepG2 cells) or 1 x 10^5 cells/well (human PBMCs) in duplicates (MDA-MB-231, K562, and […]) or triplicates for HepG2 cells (100 µL), in sterile 96-well plates. For the MDA-MB-231 and HepG2, the cells were left to adhere overnight before adding the compounds. The plates were then incubated for 24 hours (48 hours for HepG2), after which 15 µL of MTS reagent was added to each well. After 30-90 minute of incubation, the absorbance was measured at 492 nm using a microplate reader (Synergy HTX Multi-Mode; BioTek Instruments, Inc., VT, USA). […]
# (§6) Bead Array Human inflammatory cytokine Kit (content: IL-1, IL-6, IL-8, IL-10, IL-12p). The flow cytometric analyses were performed on an Attune NxT flow cytometer (Thermo Fisher Scientific, […]
# (§7) Data are represented as means ± standard deviation (SD) from three representative independent experiments.
# (§8) All experiments were performed at least twice, with average values expressed as means ± SD. All data were analyzed with the statistical software GraphPad Prism 8.0 (GraphPad Software, Inc., CA, USA). by one-way ANOVA followed with Dunnett’s multiple compar ison test. Differences were considered non-significant for p > 0.05, and significant (*) for p < 0.05. […]
# [12] = system: MDA-MB-231 cancer cell line; assay: MTS metabolic activity (cytotoxicity) assay, MDA-MB-231; assay type: cell-based, human; conditions: concentrations 1 to 100 μM, 24 hours
# Procedure: as §3, §4, §5, §6, §7, §8
# [13] = system: human peripheral blood mononuclear cells (PBMCs); assay: MTS metabolic activity (cytotoxicity) assay, PBMCs; assay type: cell-based; conditions: concentrations up to 100 μM, 24 hours
# Procedure: as §3, §4, §5, §6, §7, §8
# T8 sequence (O00182 227-355 limits assumed): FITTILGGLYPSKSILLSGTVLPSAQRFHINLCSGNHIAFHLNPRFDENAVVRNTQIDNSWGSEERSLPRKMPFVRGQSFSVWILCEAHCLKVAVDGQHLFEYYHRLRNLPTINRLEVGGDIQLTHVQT
# T7 sequence (O00182 17-148 limits assumed): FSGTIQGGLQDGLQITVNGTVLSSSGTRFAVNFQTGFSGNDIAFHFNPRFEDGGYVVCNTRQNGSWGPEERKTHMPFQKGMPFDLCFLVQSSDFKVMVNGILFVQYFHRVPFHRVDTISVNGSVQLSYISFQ
# T1 sequence (P09382 whole entry): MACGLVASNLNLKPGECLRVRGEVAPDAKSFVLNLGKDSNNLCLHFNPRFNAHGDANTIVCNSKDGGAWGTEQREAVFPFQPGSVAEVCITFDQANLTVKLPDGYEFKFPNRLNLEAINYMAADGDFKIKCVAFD
# T2 sequence (P17931 whole entry): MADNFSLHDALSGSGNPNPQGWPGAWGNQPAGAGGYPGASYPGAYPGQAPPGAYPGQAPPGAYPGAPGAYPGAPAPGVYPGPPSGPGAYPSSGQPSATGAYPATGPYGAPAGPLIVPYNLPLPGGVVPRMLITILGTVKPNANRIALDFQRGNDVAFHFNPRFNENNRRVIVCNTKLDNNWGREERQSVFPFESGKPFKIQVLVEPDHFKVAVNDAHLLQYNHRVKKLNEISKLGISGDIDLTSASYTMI
# T10 sequence (P47929 whole entry): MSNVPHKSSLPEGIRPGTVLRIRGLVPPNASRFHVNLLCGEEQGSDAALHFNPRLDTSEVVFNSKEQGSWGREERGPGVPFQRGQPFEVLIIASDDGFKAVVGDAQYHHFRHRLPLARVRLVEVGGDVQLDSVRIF
SMILES,Kd [1],Kd [2],Kd [3],Kd [4],Kd [5],Kd [6],Kd [7],Kd [8],Kd [9],Kd [10],"cell viability (MTS), K562 [11]","cell viability (MTS), MDA-MB-231 [12]","direct cytotoxicity (MTS), PBMCs [13]"
COC(=O)c1ccc2nc(CO[C@@H]3C=CO[C@H](CO)[C@@H]3O)n(C)c2c1 [5a],2.2 ± 0.138 mM,1300 ± 130 µM,1.7 ± 0.06 mM,2.6 ± 0.23 mM,400 ± 34 µM,3 ± 0.38 mM,> 1.5 mM,–,–,–,–,–,–
CCOC(=O)c1ccc2c(c1)nc(CO[C@@H]1C=CO[C@H](CO)[C@@H]1O)n2C [5b],0.84 ± 0.02 mM,680 ± 37 µM,–,–,690 ± 53 µM,1.5 ± 0.18 mM,–,–,–,–,–,–,–
COC(=O)c1ccc2nc(CO[C@@H]3C=CO[C@H](CO)[C@@H]3O)[nH]c2c1 [5c],> 1.5 mM,1200 ± 287 µM,3.2 mM,2.5 mM,180 ± 19 µM,3 ± 0.3 mM,> 1.5 mM,> 1.5 mM,–,–,–,–,–

# The next lines start with results.
Kd [1],Kd [2],Kd [3],Kd [4],Kd [5],Kd [6],Kd [7],Kd [8],Kd [9],Kd [10],SMILES,"cell viability (MTS), K562 [11]","cell viability (MTS), MDA-MB-231 [12]","direct cytotoxicity (MTS), PBMCs [13]"
1.1 ± 0.087 mM,770 ± 129 µM,3.6 mM,2.5 ± 0.3 mM,810 ± 54 µM,3 ± 0.03 mM,> 1.5 mM,> 1.5 mM,–,–,Cn1c(CO[C@@H]2C=CO[C@H](CO)[C@@H]2O)nc2cc(C(=O)O)ccc21 [6b],–,–,–
> 1.5 mM,550 ± 32 µM,1.4 ± 0.23 mM,1.9 ± 0.4 mM,46 ± 4 µM,–,> 1.5 mM,2.5 mM,990 ± 170 µM,> 1.5 mM,O=C(O)c1ccc2nc(CO[C@@H]3C=CO[C@H](CO)[C@@H]3O)[nH]c2c1 [6c],None of the compounds decreased the viability,None of the compounds decreased the viability,lack of direct cytotoxicity
